From ChEMBL document CHEMBL6153096, “Development of Potent and Selective CK1α Molecular Glue Degraders” (J Med Chem, 2025)
The source made the active and inactive calls. The rule behind the calls is not given here.

Tests used:
[1] = tested on: MOLT-4; assay: Induction of GSPT1 degradation in human MOLT-4 cells at 1 uM incubated for 5 hrs by quantitative mass spectrometry based proteomic analysis; type: cell-based
[2] = target: T1, Cereblon/Casein kinase I alpha (Homo sapiens, UniProt P48729+Q96SW2); assay: Molecular glue activity at CRBN/HiBiT-tagged CK1-alpha in human Jurkat cells assessed as induction of CK1-alpha degradation incubated for 5 hrs by Nano-Glo HiBiT assay; type: cell-based
[3] = tested on: MOLT-4; assay: Induction of IKZF1 degradation in human MOLT-4 cells at 1 uM incubated for 5 hrs by quantitative mass spectrometry based proteomic analysis; type: cell-based
[4] = tested on: MOLT-4; assay: Induction of WEE1 degradation in human MOLT-4 cells at 1 uM incubated for 5 hrs by quantitative mass spectrometry based proteomic analysis; type: cell-based
[5] = target: Zinc finger protein Aiolos (Homo sapiens) (UniProt Q9UKT9); assay: Induction of IKZF3 degradation in human MOLT-4 cells at 1 uM incubated for 5 hrs by quantitative mass spectrometry based proteomic analysis; type: cell-based
Chain of Zinc finger protein Aiolos (Homo sapiens) (Q9UKT9 whole entry): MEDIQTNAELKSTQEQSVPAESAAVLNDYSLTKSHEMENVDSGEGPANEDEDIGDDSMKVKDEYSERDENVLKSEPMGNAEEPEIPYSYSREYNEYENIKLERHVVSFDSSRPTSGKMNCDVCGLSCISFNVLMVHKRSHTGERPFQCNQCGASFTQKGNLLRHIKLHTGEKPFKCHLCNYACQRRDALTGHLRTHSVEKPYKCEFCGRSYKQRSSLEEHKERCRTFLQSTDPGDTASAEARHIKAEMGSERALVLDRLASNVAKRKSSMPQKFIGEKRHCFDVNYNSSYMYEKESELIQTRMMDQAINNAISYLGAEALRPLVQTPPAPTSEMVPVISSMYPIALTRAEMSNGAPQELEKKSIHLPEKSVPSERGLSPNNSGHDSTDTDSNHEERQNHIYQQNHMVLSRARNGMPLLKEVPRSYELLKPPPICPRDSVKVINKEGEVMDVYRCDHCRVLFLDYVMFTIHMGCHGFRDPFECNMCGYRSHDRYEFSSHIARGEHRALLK

[6] = target: T1, Cereblon/Casein kinase I alpha; assay: Molecular glue activity at CRBN/CK1-alpha in human MOLM-14 cells assessed as induction of CK1-alpha degradation at 1 uM incubated for 5 hrs by Western blot analysis; type: cell-based
Target sequence in this assay (P48729 2-337 limits assumed): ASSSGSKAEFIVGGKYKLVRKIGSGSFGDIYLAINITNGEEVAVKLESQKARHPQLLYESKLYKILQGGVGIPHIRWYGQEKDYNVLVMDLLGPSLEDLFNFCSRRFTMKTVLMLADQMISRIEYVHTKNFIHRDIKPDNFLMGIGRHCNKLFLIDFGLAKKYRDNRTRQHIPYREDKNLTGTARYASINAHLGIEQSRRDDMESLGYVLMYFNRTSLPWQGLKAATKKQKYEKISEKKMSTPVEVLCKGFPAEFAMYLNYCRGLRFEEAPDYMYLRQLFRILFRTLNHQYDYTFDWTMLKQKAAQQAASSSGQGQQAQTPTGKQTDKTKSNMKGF
Target sequence in this assay (Q96SW2 whole entry partner): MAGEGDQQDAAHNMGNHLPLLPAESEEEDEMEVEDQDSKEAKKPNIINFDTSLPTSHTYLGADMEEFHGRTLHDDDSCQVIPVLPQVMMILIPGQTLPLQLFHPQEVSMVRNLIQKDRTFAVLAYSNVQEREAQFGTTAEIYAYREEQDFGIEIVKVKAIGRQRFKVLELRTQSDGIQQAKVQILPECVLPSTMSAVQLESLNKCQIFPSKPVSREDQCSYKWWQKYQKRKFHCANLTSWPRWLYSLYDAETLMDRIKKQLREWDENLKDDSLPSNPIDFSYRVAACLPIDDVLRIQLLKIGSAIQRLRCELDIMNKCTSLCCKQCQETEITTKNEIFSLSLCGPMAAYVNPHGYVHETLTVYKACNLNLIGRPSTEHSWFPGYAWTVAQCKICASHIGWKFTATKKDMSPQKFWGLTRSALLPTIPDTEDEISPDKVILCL

[7] = target: T1, Cereblon/Casein kinase I alpha; assay: Molecular glue activity at CRBN/CK1-alpha in human MOLM-13 cells assessed as induction of CK1-alpha degradation at 1 uM incubated for 5 hrs by Western blot analysis; type: cell-based
Target sequence in this assay (P48729 2-337 limits assumed): as the sequence (P48729 2-337 limits assumed) above
Target sequence in this assay (Q96SW2 whole entry partner): as the sequence (Q96SW2 whole entry partner) above

[8] = Metabolic stability in human liver microsomes assessed as intrinsic clearance; type: ADME, Microsome
[9] = target: T1, Cereblon/Casein kinase I alpha; assay: Molecular glue activity at CRBN/CK1-alpha in human MOLM-13 cells assessed as increase in p21 level at 0.1 to 1 uM incubated for 24 hrs by Western blot analysis; type: cell-based; conditions: dose 0.1-1 µM
Target sequence in this assay (P48729 2-337 limits assumed): as the sequence (P48729 2-337 limits assumed) above
Target sequence in this assay (Q96SW2 whole entry partner): as the sequence (Q96SW2 whole entry partner) above

[10] = tested on: MOLM-14; assay: Antiproliferative activity against human MOLM-14 cells incubated for 72 hrs by CellTiter-Glo Luminescent Cell Viability Assay; type: functional, cell-based
[11] = Metabolic stability in mouse liver microsomes assessed as half life; type: ADME, Microsome; conditions: microsomes
[12] = tested on: MOLM-13; assay: Antiproliferative activity against human MOLM-13 cells incubated for 72 hrs by CellTiter-Glo Luminescent Cell Viability Assay; type: functional, cell-based; conditions: MOLM-13, 72 h
[13] = target: T1, Cereblon/Casein kinase I alpha; assay: Molecular glue activity at CRBN/CK1-alpha in human MOLM-14 cells assessed as increase in p53 level at 0.1 to 1 uM incubated for 24 hrs by Western blot analysis; type: cell-based; conditions: dose 0.1-1 µM
Target sequence in this assay (P48729 2-337 limits assumed): as the sequence (P48729 2-337 limits assumed) above
Target sequence in this assay (Q96SW2 whole entry partner): as the sequence (Q96SW2 whole entry partner) above

[14] = Metabolic stability in human liver microsomes assessed as half life; type: ADME, Microsome
[15] = target: T1, Cereblon/Casein kinase I alpha; assay: Molecular glue activity at CRBN/CK1-alpha in human MOLM-14 cells assessed as increase in p21 level at 0.1 to 1 uM incubated for 24 hrs by Western blot analysis; type: cell-based; conditions: dose 0.1-1 µM
Target sequence in this assay (P48729 2-337 limits assumed): as the sequence (P48729 2-337 limits assumed) above
Target sequence in this assay (Q96SW2 whole entry partner): as the sequence (Q96SW2 whole entry partner) above

[16] = target: T1, Cereblon/Casein kinase I alpha; assay: Molecular glue activity at CRBN/CK1-alpha in human MOLT-4 cells assessed as induction of CK1-alpha degradation at 100 uM incubated for 5 hrs by Western blot analysis; type: cell-based
Target sequence in this assay (P48729 2-337 limits assumed): as the sequence (P48729 2-337 limits assumed) above
Target sequence in this assay (Q96SW2 whole entry partner): as the sequence (Q96SW2 whole entry partner) above

[17] = target: T1, Cereblon/Casein kinase I alpha; assay: Molecular glue activity at CRBN/CK1-alpha in human MOLM-13 cells assessed as increase in MDM2 level at 0.1 to 1 uM incubated for 24 hrs by Western blot analysis; type: cell-based; conditions: dose 0.1-1 µM
[18] = target: T1, Cereblon/Casein kinase I alpha; assay: Molecular glue activity at CRBN/CK1-alpha in human MOLM-13 cells assessed as increase in p53 level at 0.1 to 1 uM incubated for 24 hrs by Western blot analysis; type: cell-based; conditions: dose 0.1-1 µM
[19] = target: T1, Cereblon/Casein kinase I alpha; assay: Molecular glue activity at CRBN/CK1-alpha in human MOLT-4 cells assessed as induction of CK1-alpha degradation at 1 uM incubated for <3 hrs by Western blot analysis; type: cell-based
[20] = Metabolic stability in mouse liver microsomes assessed as intrinsic clearance; type: ADME, Microsome
[21] = target: T1, Cereblon/Casein kinase I alpha; assay: Molecular glue activity at CRBN/CK1-alpha in human MOLM-14 cells assessed as increase in MDM2 level at 0.1 to 1 uM incubated for 24 hrs by Western blot analysis; type: cell-based; conditions: dose 0.1-1 µM
[22] = tested on: MOLM-14; assay: Antiproliferative activity against human MOLM-14 cells with CRBN-/- incubated for 72 hrs by CellTiter-Glo Luminescent Cell Viability Assay; type: functional, cell-based
[23] = target: T1, Cereblon/Casein kinase I alpha; assay: Molecular glue activity at CRBN/CK1-alpha in human MOLT-4 cells with CRBN-/- assessed as induction of CK1-alpha degradation at 1 uM incubated for 5 hrs by quantitative mass spectrometry based proteomic analysis; type: cell-based

O=C1CCC(N2Cc3cc(NC(=O)c4cc5ccccc5cn4)ccc3C2=O)C(=O)N1 (centres undefined)
Activity [1]: inactive | DC50 [2]: 7.56 nM | Activity [3]: inactive | Activity [4]: inactive | Activity [5]: inactive

O=C1CCC(N2C(=O)c3ccc(NC(=O)c4cnc5ccccc5c4)cc3C2=O)C(=O)N1 (centres undefined)
DC50 [2]: 79 nM

COc1ccn2cc(C(=O)Nc3ccc4c(c3)CN(C3CCC(=O)NC3=O)C4=O)nc2c1 (centres undefined)
DC50 [2]: 3.1 nM | EC90 [2]: 53 nM

O=C1CCC(N2Cc3cc(NC(=O)c4cn5cc(Cl)ccc5n4)ccc3C2=O)C(=O)N1 (centres undefined)
DC50 [2]: 1.3 nM | EC90 [2]: 14.9 nM

O=C1CCC(N2Cc3cc(CNC(=O)c4cnc5ccccc5c4)ccc3C2=O)C(=O)N1 (centres undefined)
DC50 [2]: > 10000 nM

Cc1cccc2nc(C(=O)Nc3ccc4c(c3)CN(C3CCC(=O)NC3=O)C4=O)cn12 (centres undefined)
DC50 [2]: 3.3 nM | EC90 [2]: 35.3 nM

CN1C(=O)CCC(N2Cc3cc(NC(=O)c4cn5ccccc5n4)ccc3C2=O)C1=O (centres undefined)
Activity [6]: Active | Activity [7]: Active | DC50 [2]: > 10000 nM

O=C1CCC(N2Cc3cc(NC(=O)c4cnc5ccccn45)ccc3C2=O)C(=O)N1 (centres undefined)
DC50 [2]: 82 nM

O=C1CCC(N2Cc3cc(NC(=O)c4cn5ccccc5n4)ccc3C2=O)C(=O)N1 (centres undefined)
CLH [8]: < 6 µL/min/mg | Activity [9]: Active | Activity [6]: Active | Activity [10]: Active | Activity [7]: Active | t1/2 [11]: 1.26 h | IC50 [12]: 41 nM | Activity [13]: Active | t1/2 [14]: > 2 h | DC50 [2]: 5.7 nM | Activity [15]: Active | Activity [16]: Active; Induces Maximum Degradation | Activity [17]: Active | Activity [18]: Active | Activity [19]: Active | CLH [20]: 9 µL/min/mg | Activity [21]: Active | Activity [22]: inactive

O=C1CCC(N2Cc3cc(-c4cnc5ccccc5c4)ccc3C2=O)C(=O)N1 (centres undefined)
CLH [8]: < 6 µL/min/mg | Activity [9]: Active | Activity [6]: Active | Activity [10]: Active | Activity [7]: Active | t1/2 [11]: 1.09 h | IC50 [12]: 2400 nM | Activity [13]: Active | Activity [1]: inactive | t1/2 [14]: > 2 h | DC50 [2]: 46.8 nM | Activity [15]: Active | Activity [17]: Active | Activity [23]: Not active; Compound Induced Ck1-Alpha Degradation In A Crbn Dependent Manner | Activity [18]: Active | Activity [19]: Active | CLH [20]: 11 µL/min/mg | Activity [3]: inactive | Activity [21]: Active | Activity [22]: inactive | Activity [4]: inactive | Activity [5]: inactive

O=C1CCC(N2Cc3cc(NC(=O)c4cn5cc(F)ccc5n4)ccc3C2=O)C(=O)N1 (centres undefined)
DC50 [2]: 6.1 nM | EC90 [2]: 45.5 nM

O=C1CCC(N2C(=O)c3ccc(NC(=O)c4cn5ccccc5n4)cc3C2=O)C(=O)N1 (centres undefined)
DC50 [2]: 88 nM

O=C1CCC(N2Cc3c(CNC(=O)c4cnc5ccccc5c4)cccc3C2=O)C(=O)N1 (centres undefined)
DC50 [2]: 138 nM

COc1ccc2cc(C(=O)Nc3ccc4c(c3)CN(C3CCC(=O)NC3=O)C4=O)ccc2c1 (centres undefined)
Activity [9]: Active | Activity [13]: Active | Activity [15]: Active | Activity [17]: Active | Activity [23]: Not active; Compound Induced Ck1-Alpha Degradation In A Crbn Dependent Manner | Activity [18]: Active | Activity [21]: Active

COc1ccc2nc(C(=O)Nc3ccc4c(c3)CN(C3CCC(=O)NC3=O)C4=O)cn2c1 (centres undefined)
CLH [8]: 21 µL/min/mg | Activity [6]: Active | Activity [10]: Active | Activity [7]: Active | t1/2 [11]: > 2 h | IC50 [12]: 23 nM | t1/2 [14]: 0.553 h | DC50 [2]: 1.1 nM | EC90 [2]: 16.2 nM | CLH [20]: < 6 µL/min/mg | Activity [22]: inactive

O=C1CCC(N2Cc3cc(NC(=O)c4cc5ccccn5n4)ccc3C2=O)C(=O)N1 (centres undefined)
CLH [8]: 11 µL/min/mg | Activity [6]: Active | Activity [10]: Active | Activity [7]: Active | t1/2 [11]: 0.105 h | IC50 [12]: 14 nM | t1/2 [14]: 1.09 h | DC50 [2]: 4.7 nM | CLH [20]: 111 µL/min/mg | Activity [22]: inactive
